Data set [1] deals with Rhodesain (Trypanosoma brucei rhodesiense) (UniProt Q95PM0). As to the kind of experiment: Inhibition of Trypanosoma brucei rhodesiense rhodesain at 20 uM using Cbz-Phe-Arg-AMC as substrate measured for 30 mins by fluorescence method relative to control.
Data set [2] addresses Cruzipain (Trypanosoma cruzi) (UniProt P25779). As to the kind of experiment: Inhibition of Trypanosoma cruzi cruzain assessed as second-order rate constant.
Data set [3] shares this target. In words: Irreversible inhibition of Trypanosoma cruzi cruzain pretreated for 30 mins followed by substrate addition and measured for 30 mins by dialysis method.
The target in data set [4] is T1, Procathepsin L (Homo sapiens, UniProt P07711). As to the kind of experiment: Inhibition of human cathepsin L at 20 uM using Cbz-Phe-Arg-AMC as substrate relative to control.
Target sequence in this assay (P07711 114-333 limits assumed): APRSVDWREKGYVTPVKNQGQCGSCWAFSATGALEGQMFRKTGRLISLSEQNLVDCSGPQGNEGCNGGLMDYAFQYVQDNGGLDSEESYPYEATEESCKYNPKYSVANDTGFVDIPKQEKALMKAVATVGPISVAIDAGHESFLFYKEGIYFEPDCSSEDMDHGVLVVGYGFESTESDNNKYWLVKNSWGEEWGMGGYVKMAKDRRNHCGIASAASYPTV
The target of data set [5] is Cruzipain (Trypanosoma cruzi, UniProt P25779). In words: Inhibition of Trypanosoma cruzi cruzain.
Data set [6] concerns Plasmodium falciparum. As to the kind of experiment: Antimalarial activity against erythrocytic stage of synchronized Plasmodium falciparum Dd2 after 48 hrs by Picogreen dye based fluorescence assay. The format is functional, organism-based. The following applies: Dd2, 48 h.
For data set [7], the target named is Rhodesain (Trypanosoma brucei rhodesiense) (UniProt Q95PM0). In words: Inhibition of Trypanosoma brucei rhodesiense rhodesain assessed as second-order rate constant using Cbz-Phe-Arg-AMC as substrate measured for 30 mins by fluorescence method.
Data set [8] concerns the target T2, Cathepsin B (Homo sapiens, UniProt P07858). As to the kind of experiment: Inhibition of human cathepsin B assessed as second order rate constant using Cbz-Phe-Arg-AMC as substrate.
Data set [9] concerns the target Cruzipain (Trypanosoma cruzi) (UniProt P25779). In words: Inhibition of Trypanosoma cruzi cruzain at 20 uM relative to control.
For data set [10], the target named is T1, Procathepsin L. In words: Inhibition of human cathepsin L assessed as second order rate constant using Cbz-Phe-Arg-AMC as substrate.
Target sequence in this assay (P07711 114-333 limits assumed): as above
The target in data set [11] is T2, Cathepsin B. In words: Inhibition of human cathepsin B using Cbz-Phe-Arg-AMC as substrate.
In data set [12] the target is T3, Falcipain 2 (Plasmodium falciparum) (UniProt Q9N6S8).
T3 sequence (whole entry): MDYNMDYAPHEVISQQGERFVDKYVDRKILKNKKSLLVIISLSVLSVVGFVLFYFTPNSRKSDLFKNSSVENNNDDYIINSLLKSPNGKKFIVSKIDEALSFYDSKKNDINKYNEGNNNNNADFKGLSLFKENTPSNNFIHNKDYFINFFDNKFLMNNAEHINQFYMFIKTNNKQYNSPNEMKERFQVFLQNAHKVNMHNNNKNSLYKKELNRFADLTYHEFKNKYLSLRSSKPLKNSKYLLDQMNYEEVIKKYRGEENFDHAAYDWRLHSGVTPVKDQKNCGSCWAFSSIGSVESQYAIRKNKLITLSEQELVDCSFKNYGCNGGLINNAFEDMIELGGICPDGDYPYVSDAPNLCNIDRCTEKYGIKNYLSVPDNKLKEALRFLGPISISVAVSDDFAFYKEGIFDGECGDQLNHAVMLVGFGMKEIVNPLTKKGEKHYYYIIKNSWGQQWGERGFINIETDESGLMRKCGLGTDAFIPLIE
In words: Irreversible inhibition of Plasmodium falciparum falcipain-2 using Cbz-Phe-Arg-AMC as substrate pretreated for 30 mins followed by substrate addition and measured for 30 mins by dialysis method.

Data set [13] addresses T1, Procathepsin L. As to the kind of experiment: Inhibition of human cathepsin L using Cbz-Phe-Arg-AMC as substrate.
Target sequence in this assay (P07711 whole entry): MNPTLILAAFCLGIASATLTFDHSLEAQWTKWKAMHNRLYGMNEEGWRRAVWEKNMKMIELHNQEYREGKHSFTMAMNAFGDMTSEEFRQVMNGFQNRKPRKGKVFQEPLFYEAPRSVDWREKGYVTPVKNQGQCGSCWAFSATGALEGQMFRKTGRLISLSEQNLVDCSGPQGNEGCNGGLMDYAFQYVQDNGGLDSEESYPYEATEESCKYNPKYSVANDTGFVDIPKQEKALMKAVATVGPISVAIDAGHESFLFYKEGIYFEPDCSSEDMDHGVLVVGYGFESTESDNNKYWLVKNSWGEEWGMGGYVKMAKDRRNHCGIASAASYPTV
For data set [14], the target named is Rhodesain (Trypanosoma brucei rhodesiense, UniProt Q95PM0). As to the kind of experiment: Inhibition of Trypanosoma brucei rhodesiense rhodesain using Cbz-Phe-Arg-AMC as substrate measured for 30 mins by fluorescence method.
The nature of data set [15]: Cytotoxicity against human HepG2 cells assessed as cell viability at 1 uM measured after 24 hrs by spectrophotometric method relative to control. It counts as cell-based. The following applies: read-out: Activity.
Data set [16] deals with Rhodesain (Trypanosoma brucei rhodesiense) (UniProt Q95PM0). As to the kind of experiment: Irreversible inhibition of Trypanosoma brucei rhodesiense rhodesain using Cbz-Phe-Arg-AMC as substrate pretreated for 30 mins followed by substrate addition and measured for 30 mins by dialysis method.
Data set [17] addresses T2, Cathepsin B. As to the kind of experiment: Inhibition of human cathepsin B at 20 uM using Cbz-Phe-Arg-AMC as substrate relative to control.
Data set [18] relates to Trypanosoma cruzi. In words: Antitrypanosomal activity against Trypanosoma cruzi Tulahuen strain C2C4 amastigote forms harboring LacZ infected in rat L6 cells after 96 hrs by CPRG/Nonidet reagent based photometric method. It counts as functional, organism-based. The settings on record: Tulahuen strain C2C4, L6, 96 h.
Data set [19] concerns Leishmania donovani. In words: Antileishmanial activity against Leishmania donovani MHOM/ET/67/L82 axenic amastigotes after 70 hrs by alamar blue staining based fluorescence assay. It counts as functional, organism-based. The settings on record: MHOM/ET/67/L82, 70 h. Background: Alamar Blue is a resazurin reagent that responds to reducing activity.
In data set [20] the target is T3, Falcipain 2 (Plasmodium falciparum). As to the kind of experiment: Inhibition of Plasmodium falciparum falcipain-2 at 20 uM using Cbz-Phe-Arg-AMC as substrate measured for 15 mins by spectrofluorimetric method relative to control.
Data set [21] has the same target. As to the kind of experiment: Inhibition of Plasmodium falciparum falcipain-2 assessed as second-order rate constant using Cbz-Phe-Arg-AMC as substrate measured for 15 mins by spectrofluorimetric method.
Data set [22] concerns Trypanosoma brucei rhodesiense. In words: Antiprotozoal activity against patient derived Trypanosoma brucei rhodesiense STIB 900 bloodstream form after 70 hrs by Alamar Blue assay. It counts as functional, organism-based. The settings on record: STIB 900, 70 h.
The target in data set [23] is T4, Falcipain 2 (Plasmodium falciparum, UniProt Q9N6S8).
T4 sequence (Q9N6S8 whole entry): T3 sequence (whole entry)
In words: Inhibition of Plasmodium falciparum falcipain-2 using Cbz-Phe-Arg-AMC as substrate measured for 15 mins by spectrofluorimetric method.

Data set [24] has as its target Cruzipain (Trypanosoma cruzi) (UniProt P25779). In words: Reversible inhibition of Trypanosoma cruzi cruzain pretreated for 30 mins followed by substrate addition and measured for 30 mins by dialysis method.
The target in data set [25] is T3, Falcipain 2 (Plasmodium falciparum). In words: Reversible inhibition of Plasmodium falciparum falcipain-2 using Cbz-Phe-Arg-AMC as substrate pretreated for 30 mins followed by substrate addition and measured for 30 mins by dialysis method.
Data set [26] concerns the target Rhodesain (Trypanosoma brucei rhodesiense) (UniProt Q95PM0). In words: Reversible inhibition of Trypanosoma brucei rhodesiense rhodesain using Cbz-Phe-Arg-AMC as substrate pretreated for 30 mins followed by substrate addition and measured for 30 mins by dialysis method.

SMILES strings stand for the structures. Active and inactive are the calls of the source. No cut-off for these calls is given here.

Cruzipain, sequence (P25779 whole entry): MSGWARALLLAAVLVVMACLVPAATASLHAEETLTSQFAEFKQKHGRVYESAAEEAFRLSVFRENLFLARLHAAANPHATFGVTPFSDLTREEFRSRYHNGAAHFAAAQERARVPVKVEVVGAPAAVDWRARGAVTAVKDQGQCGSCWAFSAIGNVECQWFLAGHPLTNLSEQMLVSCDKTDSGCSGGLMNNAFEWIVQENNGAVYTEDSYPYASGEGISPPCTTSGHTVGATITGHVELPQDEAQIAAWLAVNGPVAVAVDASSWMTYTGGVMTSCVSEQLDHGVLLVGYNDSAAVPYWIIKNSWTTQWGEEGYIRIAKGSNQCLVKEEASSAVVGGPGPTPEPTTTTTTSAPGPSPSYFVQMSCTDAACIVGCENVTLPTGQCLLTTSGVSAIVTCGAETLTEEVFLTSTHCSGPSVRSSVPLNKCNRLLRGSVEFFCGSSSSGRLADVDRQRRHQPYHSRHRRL
Rhodesain, sequence (Q95PM0 whole entry): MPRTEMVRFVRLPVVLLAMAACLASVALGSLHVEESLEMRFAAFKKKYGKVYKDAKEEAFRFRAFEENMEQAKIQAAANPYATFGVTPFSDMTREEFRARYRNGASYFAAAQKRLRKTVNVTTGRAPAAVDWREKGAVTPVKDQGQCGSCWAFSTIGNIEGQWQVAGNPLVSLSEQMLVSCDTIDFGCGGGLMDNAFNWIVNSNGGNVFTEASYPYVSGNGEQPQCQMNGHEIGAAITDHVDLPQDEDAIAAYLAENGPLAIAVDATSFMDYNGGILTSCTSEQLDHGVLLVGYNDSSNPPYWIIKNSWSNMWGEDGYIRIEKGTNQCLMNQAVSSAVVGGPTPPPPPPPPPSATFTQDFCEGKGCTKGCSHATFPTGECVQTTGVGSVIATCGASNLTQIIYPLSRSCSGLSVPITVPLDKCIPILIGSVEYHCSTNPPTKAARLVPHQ
Rhodesain (Trypanosoma brucei rhodesiense), sequence (Q95PM0 1-450): as the sequence (Q95PM0 whole entry) above
Cruzipain (Trypanosoma cruzi), sequence (P25779 123-467 limits assumed): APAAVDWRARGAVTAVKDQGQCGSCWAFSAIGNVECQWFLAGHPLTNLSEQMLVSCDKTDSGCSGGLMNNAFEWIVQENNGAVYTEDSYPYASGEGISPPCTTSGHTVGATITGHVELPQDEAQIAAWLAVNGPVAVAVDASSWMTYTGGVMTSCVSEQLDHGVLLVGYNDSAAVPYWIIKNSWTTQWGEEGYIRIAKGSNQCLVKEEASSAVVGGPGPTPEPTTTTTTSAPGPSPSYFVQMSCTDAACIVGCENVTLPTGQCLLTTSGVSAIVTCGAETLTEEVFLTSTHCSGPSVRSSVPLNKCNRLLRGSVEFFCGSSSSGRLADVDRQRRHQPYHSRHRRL

For `CCOC(=O)/C=C/C(=O)[C@H](CCc1ccccc1)NC(=O)[C@H](Cc1ccccc1)NC(=O)N1CCOCC1`, the inhibition in data set [1], in data set [4], in data set [9] and in data set [17] was 100% each time. The K in data set [2] was 23400 M⁻¹ s⁻¹; in data set [7], 142000 M⁻¹ s⁻¹; in [8] it was 97000 M⁻¹ s⁻¹; in [10] it was 28500 M⁻¹ s⁻¹. For the same compound, the inhibition result in data set [3], in data set [12] and in data set [16] was “Active” in each case. The IC50 amounted to 300 nM in [5]; 6810 nM in data set [6]; 70 nM in data set [11]; 180 nM in data set [13]; 150 nM in [14]. The viability at 24 h, 1 µM in [15] amounted to 100%.
For the compound `CCOC(=O)/C=C/C(=O)[C@@H](CCc1ccccc1)NC(=O)[C@H](Cc1ccccc1)NC(=O)N1CCOCC1`, the inhibition in data set [1] stood at 99%; in data set [4], 100%; in data set [9], 99%; in data set [17], 99%. In addition, the values for the K in [2], in data set [7] and in data set [8] were 22000 M⁻¹ s⁻¹, 62400 M⁻¹ s⁻¹ and 108000 M⁻¹ s⁻¹, respectively. For the same compound, the inhibition entry in data set [3], in [12] and in data set [16] was “Active” in each case. The IC50 was 330 nM in data set [5], 80 nM in data set [11], > 2000 nM in data set [13] and 150 nM in [14].
In data set [18], `O=C(Cn1ccnc1[N+](=O)[O-])NCc1ccccc1` [BENZNIDAZOLE] returned an IC50 of 0.5 µg/mL.
As for `CCOC(=O)/C=C/C(=O)[C@H](CCc1ccccc1)NC(=O)[C@H](CC(C)C)NC(=O)OCc1ccccc1`, the inhibition was 98% in [1]; 98% in [20]; 100% in [4]; 100% in data set [9]; 100% in [17]. The K stood at 60800 M⁻¹ s⁻¹ in [2]; 6000 M⁻¹ s⁻¹ in [21]; 116000 M⁻¹ s⁻¹ in [7]; 42400 M⁻¹ s⁻¹ in [8]; 29900 M⁻¹ s⁻¹ in [10]. Moreover, the IC50 in data set [19] turned out to be 90 nM; in [18] it was 7140 nM; in data set [5], 80 nM; in [6], 1610 nM; in data set [22], 2320 nM; in data set [13], 260 nM. In data set [23], this compound displayed an IC50 of 580 nM. The viability at 24 h, 1 µM in [15] worked out at 100%.
On to `CCOC(=O)/C=C/C(=O)[C@H](CCc1ccccc1)NC(=O)[C@H](Cc1ccccc1)NC(=O)OCc1ccccc1`, for which the inhibition in data set [1] was found to be 100%; in [20], 100%; in data set [4], 100%; in data set [9], 99%; in data set [17], 100%. The IC50 in data set [19] came to 12600 nM; in data set [18], 20100 nM; in data set [6] it was 16100 nM; in [22], 930 nM; in data set [14], 30 nM; in data set [23], 60 nM. The K in data set [21] was determined as 17100 M⁻¹ s⁻¹; in data set [7], 1.27e+06 M⁻¹ s⁻¹; in [8] it was 45500 M⁻¹ s⁻¹; in data set [10] it was 45300 M⁻¹ s⁻¹. For the same compound, the viability at 24 h, 1 µM in data set [15] stood at 100%.
With `CCOC(=O)/C=C/C(=O)[C@H](CC(C)C)NC(=O)[C@H](Cc1ccccc1)NC(=O)OCc1ccccc1`, the inhibition in data set [1], in data set [4], in [9] and in [17] was 100% throughout. The K is 517000 M⁻¹ s⁻¹ in data set [2], 1.61e+06 M⁻¹ s⁻¹ in [7], 138000 M⁻¹ s⁻¹ in [8] and 759000 M⁻¹ s⁻¹ in [10]. Moreover, the IC50 turned out to be 20 nM in [5]; 14900 nM in [6]; 50 nM in data set [11]; 10 nM in [13]; 20 nM in [14]. Moreover, the viability at 24 h, 1 µM in data set [15] was found to be 100%.
As to `CCOC(=O)/C=C/C=C/C(=O)[C@H](CCc1ccccc1)NC(=O)[C@H](Cc1ccccc1)NC(=O)N1CCOCC1`, the inhibition stood at 98% in data set [1], 99% in data set [4] and 90% in data set [17]. Besides, the K in [2] amounted to 0.56 M⁻¹ s⁻¹. Also, the inhibition entry in data set [3], in data set [24], in data set [25], in data set [12], in [26] and in data set [16] was “Active” in each case. Also, the IC50 was > 2000 nM in data set [5], 2250 nM in data set [11], 1490 nM in [13] and 560 nM in [14]. In addition, the figures for the inhibitory constant (Ki) in [11] and in data set [13] were 1400 nM and 780000 nM, respectively.

One may read the inhibition as how much of the control response was suppressed. As usually defined, the IC50 is the concentration needed to halve the response being measured. A low value points to greater potency in that assay. By Ki is commonly meant the equilibrium dissociation constant of an inhibitor or competing ligand from its target.

For the origin of these results see ChEMBL document CHEMBL4229471, “Antiprotozoal and cysteine proteases inhibitory activity of dipeptidyl enoates” (Bioorg Med Chem, 2018).
